Reference: ChEMBL document CHEMBL1201862, “PubChem BioAssay data set” (2004)
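Briefly, cells in 96-well plates were exposed to five compound concentrations for 48 h, and endpoints were estimated by linear interpolation. Here, GI50 denotes the concentration required for 50% inhibition of growth.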 The source made the active and inactive calls. No stated cut-off is given here; in the data, active = GI50 up to about 1.1 µM and inactive = higher.

Experiments:
Assay in all cases: NCI anticancer screen, dose series, 48 h
SF-268 = test system: SF-268
COLO 205 = test system: COLO 205
HL-60 = test system: HL-60
DU-145 = test system: DU-145
NCI-H522 = test system: NCI-H522
SNB-75 = test system: SNB-75
SW-620 = test system: SW-620
OVCAR-8 = test system: OVCAR-8
MDA-N = test system: MDA-N
RPMI-8226 = test system: RPMI-8226
MCF7 = test system: MCF7
EKVX = test system: EKVX
NCI-H23 = test system: NCI-H23
SK-MEL-2 = test system: SK-MEL-2
K562 = test system: K562
UACC-62 = test system: UACC-62
TK-10 = test system: TK-10
HCC 2998 = test system: HCC 2998
SR = test system: SR
UACC-257 = test system: UACC-257
HOP-62 = test system: HOP-62
CCRF-CEM = test system: CCRF-CEM
SNB-19 = test system: SNB-19
IGROV-1 = test system: IGROV-1
A549 = test system: A549
NCI/ADR-RES = test system: NCI/ADR-RES
786-0 = test system: 786-0
HT-29 = test system: HT-29
M14 = test system: M14
SK-MEL-5 = test system: SK-MEL-5
OVCAR-4 = test system: OVCAR-4
UO-31 = test system: UO-31
MOLT-4 = test system: MOLT-4
PC-3 = test system: PC-3
BT-549 = test system: BT-549
KM12 = test system: KM12
HCT-116 = test system: HCT-116
Malme-3M = test system: Malme-3M
OVCAR-5 = test system: OVCAR-5
Hs-578T = test system: Hs-578T
SK-OV-3 = test system: SK-OV-3
CAKI-1 = test system: CAKI-1
NCI-H460 = test system: NCI-H460
T47D = test system: T47D
SN12C = test system: SN12C
LOX IMVI = test system: LOX IMVI
SF-539 = test system: SF-539
A498 = test system: A498
HCT-15 = test system: HCT-15
NCI-H226 = test system: NCI-H226
MDA-MB-231 = test system: MDA-MB-231
ACHN = test system: ACHN
SF-295 = test system: SF-295
OVCAR-3 = test system: OVCAR-3
U-251 = test system: U-251
MDA-MB-435 = test system: MDA-MB-435
SK-MEL-28 = test system: SK-MEL-28
RXF 393 = test system: RXF 393
HOP-92 = test system: HOP-92

Compound: NC(=O)c1nnc2cc(F)c(F)cc2c1N
- GI50 (SF-268): 21.6 µM (inactive)
- GI50 (COLO 205): > 100 µM (inactive)
- GI50 (HL-60): > 100 µM (inactive)
- GI50 (DU-145): 74.3 µM (inactive)
- GI50 (NCI-H522): 18.8 µM (inactive)
- GI50 (SNB-75): 16.7 µM (inactive)
- GI50 (SW-620): > 100 µM (inactive)
- GI50 (OVCAR-8): 37.3 µM (inactive)
- GI50 (MDA-N): > 100 µM (inactive)
- GI50 (RPMI-8226): > 100 µM (inactive)
- GI50 (MCF7): 37.9 µM (inactive)
- GI50 (EKVX): 44.7 µM (inactive)
- GI50 (NCI-H23): 23.3 µM (inactive)
- GI50 (SK-MEL-2): 15 µM (inactive)
- GI50 (K562): > 100 µM (inactive)
- GI50 (UACC-62): 31.3 µM (inactive)
- GI50 (TK-10): 35.2 µM (inactive)
- GI50 (HCC 2998): > 100 µM (inactive)
- GI50 (SR): > 100 µM (inactive)
- GI50 (UACC-257): > 100 µM (inactive)
- GI50 (HOP-62): 18.5 µM (inactive)
- GI50 (CCRF-CEM): > 100 µM (inactive)
- GI50 (SNB-19): 30.8 µM (inactive)
- GI50 (IGROV-1): 47.5 µM (inactive)
- GI50 (A549): 90.2 µM (inactive)
- GI50 (NCI/ADR-RES): 27.6 µM (inactive)
- GI50 (786-0): 32.4 µM (inactive)
- GI50 (HT-29): > 100 µM (inactive)
- GI50 (M14): 67.5 µM (inactive)
- GI50 (SK-MEL-5): 87.1 µM (inactive)
- GI50 (OVCAR-4): > 100 µM (inactive)
- GI50 (UO-31): 22.1 µM (inactive)
- GI50 (MOLT-4): > 100 µM (inactive)
- GI50 (PC-3): 95.1 µM (inactive)
- GI50 (BT-549): 15.7 µM (inactive)
- GI50 (KM12): > 100 µM (inactive)
- GI50 (HCT-116): 72.1 µM (inactive)
- GI50 (Malme-3M): 29.7 µM (inactive)
- GI50 (OVCAR-5): 57.3 µM (inactive)
- GI50 (Hs-578T): 26.7 µM (inactive)
- GI50 (SK-OV-3): 25.5 µM (inactive)
- GI50 (CAKI-1): 61.2 µM (inactive)
- GI50 (NCI-H460): 58.3 µM (inactive)
- GI50 (T47D): 40.7 µM (inactive)
- GI50 (SN12C): 84.9 µM (inactive)
- GI50 (LOX IMVI): 57.3 µM (inactive)
- GI50 (SF-539): 36.4 µM (inactive)
- GI50 (A498): 41.1 µM (inactive)
- GI50 (HCT-15): > 100 µM
- GI50 (NCI-H226): 11.9 µM (inactive)
- GI50 (MDA-MB-231): 44.1 µM (inactive)
- GI50 (ACHN): 52.1 µM (inactive)
- GI50 (SF-295): 27.3 µM (inactive)
- GI50 (OVCAR-3): > 100 µM (inactive)
- GI50 (U-251): 22.3 µM (inactive)
- GI50 (MDA-MB-435): 97.9 µM (inactive)

Compound: Cn1c(-c2cccs2)cc(-c2cccs2)c1-c1ccsc1
- GI50 (SF-268): > 100 µM (inactive)
- GI50 (COLO 205): > 100 µM (inactive)
- GI50 (HL-60): > 100 µM (inactive)
- GI50 (DU-145): > 100 µM (inactive)
- GI50 (SNB-75): > 100 µM (inactive)
- GI50 (SW-620): > 100 µM (inactive)
- GI50 (OVCAR-8): > 100 µM (inactive)
- GI50 (MDA-N): > 100 µM (inactive)
- GI50 (RPMI-8226): > 100 µM (inactive)
- GI50 (MCF7): 2.03 µM (inactive)
- GI50 (EKVX): > 100 µM (inactive)
- GI50 (NCI-H23): > 100 µM (inactive)
- GI50 (SK-MEL-2): 34.1 µM (inactive)
- GI50 (K562): > 100 µM (inactive)
- GI50 (UACC-62): > 100 µM (inactive)
- GI50 (TK-10): > 100 µM (inactive)
- GI50 (HCC 2998): > 100 µM (inactive)
- GI50 (SR): 48.2 µM (inactive)
- GI50 (UACC-257): 66.8 µM (inactive)
- GI50 (HOP-62): 53 µM (inactive)
- GI50 (CCRF-CEM): > 100 µM (inactive)
- GI50 (SNB-19): 70.3 µM (inactive)
- GI50 (A549): 70.5 µM (inactive)
- GI50 (NCI/ADR-RES): > 100 µM (inactive)
- GI50 (786-0): > 100 µM (inactive)
- GI50 (HT-29): > 100 µM (inactive)
- GI50 (M14): > 100 µM (inactive)
- GI50 (SK-MEL-28): > 100 µM (inactive)
- GI50 (SK-MEL-5): 27.2 µM (inactive)
- GI50 (OVCAR-4): > 100 µM (inactive)
- GI50 (UO-31): > 100 µM (inactive)
- GI50 (MOLT-4): > 100 µM (inactive)
- GI50 (PC-3): > 100 µM (inactive)
- GI50 (BT-549): > 100 µM (inactive)
- GI50 (KM12): 29.5 µM (inactive)
- GI50 (HCT-116): 23.3 µM (inactive)
- GI50 (OVCAR-5): > 100 µM (inactive)
- GI50 (Hs-578T): > 100 µM (inactive)
- GI50 (SK-OV-3): > 100 µM (inactive)
- GI50 (CAKI-1): > 100 µM (inactive)
- GI50 (NCI-H460): > 100 µM (inactive)
- GI50 (T47D): > 100 µM (inactive)
- GI50 (SN12C): > 100 µM (inactive)
- GI50 (LOX IMVI): > 100 µM (inactive)
- GI50 (SF-539): > 100 µM (inactive)
- GI50 (A498): > 100 µM (inactive)
- GI50 (HCT-15): 32.9 µM
- GI50 (NCI-H226): > 100 µM (inactive)
- GI50 (MDA-MB-231): > 100 µM (inactive)
- GI50 (ACHN): > 100 µM (inactive)
- GI50 (SF-295): > 100 µM (inactive)
- GI50 (OVCAR-3): 12.4 µM (inactive)
- GI50 (RXF 393): 3.64 µM (inactive)
- GI50 (U-251): > 100 µM (inactive)
- GI50 (HOP-92): > 100 µM (inactive)
- GI50 (MDA-MB-435): > 100 µM (inactive)

Compound: Cc1c2cccc-2c(N(C)C)cc2c1[nH]c1ccccc12
- GI50 (SF-268): 5.13 µM (inactive)
- GI50 (COLO 205): 1.65 µM (inactive)
- GI50 (HL-60): 2.35 µM (inactive)
- GI50 (DU-145): 14.6 µM (inactive)
- GI50 (SW-620): 4.17 µM (inactive)
- GI50 (OVCAR-8): 3.21 µM (inactive)
- GI50 (MDA-N): 6.56 µM (inactive)
- GI50 (RPMI-8226): 2.07 µM (inactive)
- GI50 (MCF7): 5.31 µM (inactive)
- GI50 (EKVX): 1.96 µM (inactive)
- GI50 (NCI-H23): 8.93 µM (inactive)
- GI50 (TK-10): 4.63 µM (inactive)
- GI50 (SR): 1.58 µM (inactive)
- GI50 (UACC-257): 13 µM (inactive)
- GI50 (HOP-62): 2.71 µM (inactive)
- GI50 (CCRF-CEM): 3.83 µM (inactive)
- GI50 (SNB-19): 9.27 µM (inactive)
- GI50 (IGROV-1): 1.89 µM (inactive)
- GI50 (A549): 3.85 µM (inactive)
- GI50 (NCI/ADR-RES): 3.22 µM (inactive)
- GI50 (786-0): 2.97 µM (inactive)
- GI50 (HT-29): 4.81 µM (inactive)
- GI50 (M14): 5.32 µM (inactive)
- GI50 (SK-MEL-28): 2.02 µM (inactive)
- GI50 (SK-MEL-5): 5.64 µM (inactive)
- GI50 (UO-31): 2.53 µM (inactive)
- GI50 (MOLT-4): 4.35 µM (inactive)
- GI50 (PC-3): 1.42 µM (inactive)
- GI50 (BT-549): 2.6 µM (inactive)
- GI50 (KM12): 2.74 µM (inactive)
- GI50 (HCT-116): 3.33 µM (inactive)
- GI50 (Malme-3M): 3.3 µM (inactive)
- GI50 (OVCAR-5): 3.23 µM (inactive)
- GI50 (Hs-578T): 3.57 µM (inactive)
- GI50 (SK-OV-3): 2.67 µM (inactive)
- GI50 (CAKI-1): 17.5 µM (inactive)
- GI50 (NCI-H460): 9.16 µM (inactive)
- GI50 (T47D): 1.86 µM (inactive)
- GI50 (SN12C): 6.67 µM (inactive)
- GI50 (LOX IMVI): 3.94 µM (inactive)
- GI50 (SF-539): 2.11 µM (inactive)
- GI50 (A498): 21 µM (inactive)
- GI50 (HCT-15): 3.12 µM
- GI50 (NCI-H226): 5.81 µM (inactive)
- GI50 (MDA-MB-231): 10.1 µM (inactive)
- GI50 (ACHN): 3.19 µM (inactive)
- GI50 (SF-295): 10.4 µM (inactive)
- GI50 (OVCAR-3): 4.32 µM (inactive)
- GI50 (U-251): 1.93 µM (inactive)
- GI50 (HOP-92): 0.561 µM (active)
- GI50 (MDA-MB-435): 8.36 µM (inactive)
